This is an account of results in patent publication US20170088545A1, “CARBOXAMIDE INHIBITORS” (Norvartis AG, priority 2014, published 2017).

One experiment concerns the target Smurf-1 (Homo sapiens, UniProt Q9HCE7). As to the kind of experiment: HECT E3 ligase autoubiquitinylation TR-FRET assay, Smurf-1. Type of experiment: biochemical. As to conditions: 45 min incubation, 8-point dose-response. The text has this:
(§1) To determine the HECT E3 ligase selectivity of the compounds, a panel of biochemical HECT E3 ligase autoubiquitinylation assays was employed (Smurf-1, Smurf-2, WWP1, WWP2, ITCH, Nedd4, Nedd4L and E6AP). The conjugation of ubiquitin to a protein substrate is a multistep process. In an initial ATP-requiring step, a thioester bond is formed between the carboxyl terminus of ubiquitin and an internal cystein residue of the ubiquitin-activating enzyme (E1). Activated ubiquitin is then transferred to a specific cystein residue of an ubiquitin-conjugating enzyme (E2). E2s donate ubiquitin to a HECT E3 ligase (E3) from which it is transferred to the substrate protein. HECT E3 ligases can auto-ubiquitinylate. This event is detected in the TR-FRET (Time-Resolved Fluorescence Resonance Energy Transfer) assay used in this panel. The reaction mix contains E1, E2, tagged-E3, biotin-conjugated ubiquitin, the compound and ATP in a suitable buffer and is incubated for 45 minutes to allow auto-ubiquitinylation of the E3 ligase. To measure the extent of ubiquitinylated E3 ligase by TR-FRET, the donor fluorophore Europium cryptate (Eu3+ cryptate), conjugated to streptavidin which subsequently binds to biotinylated ubiquitin, and the modified allophycocyanin XL665 (HTRF® primary acceptor fluorophore) coupled to a tag-specific antibody (HA, His or GST), which recognizes the respective E3 ligase fusion proteins, are added after the reaction is complete. When these two fluorophores are brought together by a biomolecular interaction (in this case ubiquitinylation of the E3 ligase), a portion of the energy captured by the Cryptate during excitation is released through fluorescence emission at 620 nm, while the remaining energy is transferred to XL665. This energy is then released by XL665 as specific fluorescence at 665 nm. Light at 665 nm is emitted only through FRET with Europium.
(§2) Test and reference compounds are prepared at 180× [final] in 90% DMSO, and diluted 1:3 in 90% DMSO.
(§3) For the biochemical assay panel, 50 nl of the test compounds, reference compounds and buffer/DMSO control are transferred to the respective wells of a 384-well white GREINER “SMALL VOLUME” PS plate. The assay panel is run at room temperature on a Biomek FX liquid handling workstation. To the assay plates containing 50 nl compound or control solutions in 90% DMSO, 4.5 ul of E3 ligase solution were added per well, followed by 4.5 ul of the pre-incubated E1/E2/Ub mix or the pre-diluted ubiquitin (LOW control). Plates are shaken vigorously after each addition. In this assay the compound concentrations range from 3 nM to 10 uM in an 8-point dose-response curve.
(§4) After 45 min of incubation the ubiquitinylation reactions were stopped by adding 4.5 ul 2 mM NEM, immediately followed by 4.5 ul of a detection solution including the XL665-labeled antibody and the streptavidin-coupled europium to give a total volume of 18 ul. After an incubation time of 45 min in the dark, the plates are transferred into the Pherastar fluorescence reader to measure the TR-FRET signal.

A further experiment deals with Smurf-2 (Homo sapiens, UniProt Q9HAU4). As to the kind of experiment: HECT E3 ligase autoubiquitinylation TR-FRET assay, Smurf-2. It counts as biochemical. The settings on record: 45 min incubation, 8-point dose-response.
Chain of Smurf-2 (Q9HAU4 whole entry, species assumed): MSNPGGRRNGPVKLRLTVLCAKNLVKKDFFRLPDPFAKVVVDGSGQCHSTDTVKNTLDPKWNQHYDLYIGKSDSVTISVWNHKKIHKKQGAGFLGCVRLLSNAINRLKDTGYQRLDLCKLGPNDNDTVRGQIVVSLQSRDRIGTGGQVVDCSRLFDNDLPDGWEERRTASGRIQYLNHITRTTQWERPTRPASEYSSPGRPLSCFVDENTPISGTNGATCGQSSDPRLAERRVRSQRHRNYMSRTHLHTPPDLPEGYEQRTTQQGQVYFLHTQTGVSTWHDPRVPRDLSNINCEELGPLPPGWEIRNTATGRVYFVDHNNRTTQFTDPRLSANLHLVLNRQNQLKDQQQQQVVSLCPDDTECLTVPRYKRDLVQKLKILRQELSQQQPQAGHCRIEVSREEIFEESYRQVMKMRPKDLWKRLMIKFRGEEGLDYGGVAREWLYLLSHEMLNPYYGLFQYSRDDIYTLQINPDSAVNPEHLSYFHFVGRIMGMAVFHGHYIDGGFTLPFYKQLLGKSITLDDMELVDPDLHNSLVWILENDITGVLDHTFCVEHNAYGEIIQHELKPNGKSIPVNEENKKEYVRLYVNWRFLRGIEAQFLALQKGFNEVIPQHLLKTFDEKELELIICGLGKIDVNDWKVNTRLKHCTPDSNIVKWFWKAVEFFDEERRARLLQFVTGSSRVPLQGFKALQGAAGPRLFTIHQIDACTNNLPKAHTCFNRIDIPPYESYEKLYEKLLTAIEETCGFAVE
Description: as §1, §2, §3, §4

The structures appear in SMILES notation.

Chain of Smurf-1 (Q9HCE7 whole entry): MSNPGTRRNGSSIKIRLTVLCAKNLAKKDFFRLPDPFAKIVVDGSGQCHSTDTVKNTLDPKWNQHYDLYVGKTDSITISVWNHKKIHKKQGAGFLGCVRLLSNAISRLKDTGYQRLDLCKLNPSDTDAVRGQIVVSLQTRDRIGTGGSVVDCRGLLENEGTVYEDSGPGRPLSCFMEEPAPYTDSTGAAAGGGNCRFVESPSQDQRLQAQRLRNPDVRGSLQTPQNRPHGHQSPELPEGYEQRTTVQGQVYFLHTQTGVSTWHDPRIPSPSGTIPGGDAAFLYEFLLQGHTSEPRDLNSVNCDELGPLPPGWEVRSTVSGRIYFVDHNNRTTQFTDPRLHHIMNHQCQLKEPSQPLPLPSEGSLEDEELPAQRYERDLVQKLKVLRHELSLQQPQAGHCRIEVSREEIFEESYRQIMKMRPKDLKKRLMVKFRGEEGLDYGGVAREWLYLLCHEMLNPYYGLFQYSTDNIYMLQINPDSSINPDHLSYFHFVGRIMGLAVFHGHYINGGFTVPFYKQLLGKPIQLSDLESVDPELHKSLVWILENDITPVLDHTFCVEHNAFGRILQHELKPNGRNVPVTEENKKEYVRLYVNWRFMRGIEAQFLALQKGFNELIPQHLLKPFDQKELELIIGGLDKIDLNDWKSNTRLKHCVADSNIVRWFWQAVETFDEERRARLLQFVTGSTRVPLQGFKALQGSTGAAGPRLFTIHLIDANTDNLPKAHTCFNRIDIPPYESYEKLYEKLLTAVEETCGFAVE

With `COc1ccc(-c2onc(C(=O)Nc3c(C)n(C)n(-c4ccccc4F)c3=O)c2Cl)c(F)c1Cl` [Example 021, 4-Chloro-5-(3-chloro-2-fluoro-4-methoxyphenyl)-N-(2-(2-fluorophenyl)-1,5-dimethyl-3-oxo-2,3-dihydro-1H-pyrazol-4-yl)isoxazole-3-carboxamide], the half-maximal inhibitory concentration (IC50) (commonly the point on the concentration scale where inhibition reaches its midpoint) is 810 nM against Smurf-1 and > 10000 nM against Smurf-2.

For the compound `Cc1c(NC(=O)c2noc(-c3ccc(Cl)cc3Cl)c2C2CC2)c(=O)n(C2CCCCC2)n1C` [Example 039, N-(2-Cyclohexyl-1,5-dimethyl-3-oxo-2,3-dihydro-1H-pyrazol-4-yl)-4-cyclopropyl-5-(2,4-dichlorophenyl) isoxazole-3-carboxamide], the IC50 was found to be 8.3 nM at Smurf-1 and 7500 nM against Smurf-2.

Consider `COc1cc(F)c(-c2onc(C(=O)Nc3c(C)n(C)n(-c4ccccc4F)c3=O)c2C)c(F)c1` [Example 046, 5-(2,6-difluoro-4-methoxyphenyl)-N-(2-(2-fluorophenyl)-1,5-dimethyl-3-oxo-2,3-dihydro-1H-pyrazol-4-yl)-4-methylisoxazole-3-carboxamide], for which the IC50 at Smurf-1 was 4150 nM; on Smurf-2, > 10000 nM.

`Cc1c(C(=O)Nc2c(C)n(C)n(-c3ccccc3F)c2=O)noc1-c1ccc(C2CC2)cc1Cl` [Example 002, 5-(2-Chloro-4-cyclopropylphenyl)-N-(2-(2-fluorophenyl)-1,5-dimethyl-3-oxo-2,3-dihydro-1H-pyrazol-4-yl)-4-methylisoxazole-3-carboxamide]: the figures for the half-maximal inhibitory concentration (IC50) on Smurf-1 and against Smurf-2 were 13.4 nM and 3660 nM, respectively.

With `COc1c(C)cccc1-c1onc(C(=O)Nc2c(C)n(C)n(C3CCCCC3)c2=O)c1C` [Example 070, N-(2-Cyclohexyl-1 ,5-dimethyl-3-oxo-2,3-dihydro-1H-pyrazol-4-yl)-5-(2-methoxy-3-methylphenyl)-4-methylisoxazole-3-carboxamide], the IC50 came out at 33 nM against Smurf-1 and 17800 nM on Smurf-2.

For the compound `Cc1c(NC(=O)c2noc(-c3ccc(Cl)cc3Cl)c2Cl)c(=O)n(C2CCCCC2)n1C` [Example 023, 4-Chloro-N-(2-cyclohexyl-1,5-dimethyl-3-oxo-2,3-dihydro-1H-pyrazol-4-yl)-5-(2,4-dichlorophenyl) isoxazole-3-carboxamide], the values for the IC50 on Smurf-1 and at Smurf-2 were 2.4 nM and 4250 nM, respectively.

For the compound `Cc1c(NC(=O)c2noc(-c3ccc(OC(F)F)cc3Cl)c2Cl)c(=O)n(-c2ccccc2F)n1C` [Example 003, 4-Chloro-5-(2-chloro-4-(difluoromethoxy)phenyl)-N-(2-(2-fluorophenyl)-1,5-dimethyl-3-oxo-2,3-dihydro-1H-pyrazol-4-yl)isoxazole-3-carboxamide], the figures for the IC50 against Smurf-1 and against Smurf-2 were 54.3 nM and 16800 nM, respectively.

Take `Cc1c(C(=O)Nc2c(C)n(C)n(-c3ccccc3F)c2=O)noc1-c1ccc(C(F)(F)F)cc1` [Example 008, N-(2-(2-Fluorophenyl)-1,5-dimethyl-3-oxo-2,3-dihydro-1H-pyrazol-4-yl)-4-methyl-5-(4-(trifluoromethyl)phenyl) isoxazole-3-carboxamide]: the IC50 is 883 nM against Smurf-1 and > 10000 nM against Smurf-2.

As to `Cc1cc(C)c(-c2onc(C(=O)Nc3c(C)n(C)n(-c4ccccc4F)c3=O)c2C)c(C)c1` [Example 083, N-(2-(2-fluorophenyl)-1,5-dimethyl-3-oxo-2,3-dihydro-1H-pyrazol-4-yl)-5-mesityl-4-methylisoxazole-3-carboxamide], the concentration for half-maximal inhibition (IC50) against Smurf-1 was 2300 nM; on Smurf-2 it was > 20200 nM.

In the case of `COc1ccc(-c2onc(C(=O)Nc3c(C)n(C)n(-c4ccccc4F)c3=O)c2F)c(Cl)c1` [Example 033, 5-(2-Chloro-4-methoxyphenyl)-4-fluoro-N-(2-(2-fluorophenyl)-1,5-dimethyl-3-oxo-2,3-dihydro-1H-pyrazol-4-yl)isoxazole-3-carboxamide], the concentration for half-maximal inhibition (IC50) at Smurf-1 is 220 nM; at Smurf-2 it was > 20000 nM.

As to `Cc1c(C(=O)Nc2c(C)n(C)n(C3CCCCC3)c2=O)noc1-c1ccc(Cl)cc1C1CC1` [Example 069, 5-(4-Chloro-2-cyclopropylphenyl)-N-(2-cyclohexyl-1,5-dimethyl-3-oxo-2,3-dihydro-1H-pyrazol-4-yl)-4-methylisoxazole-3-carboxamide], the 50% inhibitory concentration (IC50) on Smurf-1 was found to be 5 nM; against Smurf-2, 3200 nM.

Consider `COCc1ccc(-c2onc(C(=O)Nc3c(C)n(C)n(C4CCCCC4)c3=O)c2C)c(Cl)c1` [Example 47, 5-(2-Chloro-4-(methoxymethyl)phenyl)-N-(2-cyclohexyl-1,5-dimethyl-3-oxo-2,3-dihydro-1H-pyrazol-4-yl)-4-methylisoxazole-3-carboxamide], for which the IC50 at Smurf-1 is 41.5 nM; at Smurf-2 it was > 20200 nM.

On to `Cc1c(C(=O)Nc2c(C)n(C)n(-c3ccccc3F)c2=O)noc1-c1ccc2c(c1)CCO2` [Example 062, 5-(2,3-Dihydrobenzofuran-5-yl)-N-(2-(2-fluorophenyl)-1,5-dimethyl-3-oxo-2,3-dihydro-1H-pyrazol-4-yl)-4-methylisoxazole-3-carboxamide], for which the half-maximal inhibitory concentration (IC50) is 965 nM at Smurf-1 and > 20200 nM on Smurf-2.

In the case of `Cc1c(C(=O)Nc2c(C)n(C)n(C3CCCCC3)c2=O)noc1-c1cccc2c1OCCC2` [Example 075, 5-(Chroman-8-yl)-N-(2-cyclohexyl-1,5-dimethyl-3-oxo-2,3-dihydro-1H-pyrazol-4-yl)-4-methyl isoxazole-3-carboxamide], the IC50 on Smurf-1 is 895 nM; on Smurf-2, > 20200 nM.

As for `COc1ccccc1-c1onc(C(=O)Nc2c(C)n(C)n(-c3ccccc3F)c2=O)c1C` [Example 084, N-(2-(2-fluorophenyl)-1,5-dimethyl-3-oxo-2,3-dihydro-1H-pyrazol-4-yl)-5-(2-methoxyphenyl)-4-methylisoxazole-3-carboxamide], the IC50 is 7150 nM on Smurf-1 and > 20200 nM on Smurf-2.

In the case of `COc1ccc(-c2onc(C(=O)Nc3c(C)n(C)n(-c4ccccc4F)c3=O)c2C)c(C(F)(F)F)c1` [Example 013, N-(2-(2-Fluorophenyl)-1,5-dimethyl-3-oxo-2,3-dihydro-1H-pyrazol-4-yl)-5-(4-methoxy-2-(trifluoromethyl)phenyl)-4-methylisoxazole-3-carboxamide], the half-inhibitory concentration (IC50) is 102 nM against Smurf-1 and > 20000 nM at Smurf-2.

`Cc1c(C(=O)Nc2c(C)n(C)n(C3CCCCC3)c2=O)noc1-c1ccc(Cl)cc1F` [Example 057, 5-(4-Chloro-2-fluorophenyl)-N-(2-cyclohexyl-1,5-dimethyl-3-oxo-2,3-dihydro-1H-pyrazol-4-yl)-4-methylisoxazole-3-carboxamide]: the 50% inhibitory concentration (IC50) on Smurf-1 is 24 nM; at Smurf-2 it was 7500 nM.

In the case of `Cc1c(C(=O)Nc2c(C)n(C)n(C3CCCCC3)c2=O)noc1-c1ccc(C2CC2)cc1Cl` [Example 019, 5-(2-Chloro-4-cyclopropylphenyl)-N-(2-cyclohexyl-1,5-dimethyl-3-oxo-2,3-dihydro-1H-pyrazol-4-yl)-4-methylisoxazole-3-carboxamide], the IC50 on Smurf-1 is 3.5 nM; at Smurf-2 it was 3100 nM.

On to `Cc1c(C(=O)Nc2c(C)n(C)n(-c3ccccc3F)c2=O)noc1-c1ccc(Cl)cc1Cl` [Example 001, 5-(2,4-Dichlorophenyl)-N-(2-(2-fluorophenyl)-1,5-dimethyl-3-oxo-2,3-dihydro-1H-pyrazol-4-yl)-4-methylisoxazole-3-carboxamide], for which the IC50 against Smurf-1 was 29.5 nM; against Smurf-2, > 10000 nM.
